Experimental findings from patent US20250163104A1, “MACROCYCLIC IMMUNOMODULATORS” (priority 2021, published 2025) are described below.

By IC50 is commonly meant the midpoint of a concentration-inhibition curve.

SMILES strings stand for the structures. Like-named read-outs stand apart in the source and are kept apart here. *1 amine or outer side, *2 acyl side, *3 side chain or, on linkers, in order; H or OH if unused. Where a SMILES comes first, the peptide text is derived from it. Bridges are numbered along the chain shown (N, C = ends). [ ]: non-standard residue; d: D form. The star is where a group is joined. ξ: configuration not given here. X3 = O=C([C@H](CCCNC[C@@H](O)[C@H](O)[C@H](O)[C@@H](O)[C@H](O)CO)N[*:1])[*:2]; X4 = O=C([C@H](CCNC[C@@H](O)[C@H](O)[C@H](O)[C@@H](O)[C@H](O)CO)N[*:1])[*:2]; Phe(4-COOH) = N[C@@H](Cc1ccc(C(=O)O)cc1)C(=O)O; Bip = N[C@@H](Cc1ccc(-c2ccccc2)cc1)C(=O)O; Phe(3-Me) = Cc1cccc(C[C@H](N)C(=O)O)c1; Val(3-OH) = CC(C)(O)[C@H](N)C(=O)O; 4Pal = N[C@@H](Cc1ccncc1)C(=O)O; 2Thi = N[C@@H](Cc1cccs1)C(=O)O; Cha = N[C@@H](CC1CCCCC1)C(=O)O; Cit = NC(=O)NCCC[C@H](N)C(=O)O; Ile(3ξ) = CCC(C)[C@H](N)C(=O)O; Thr(3ξ) = CC(O)[C@H](N)C(=O)O; Carboxymethyl = O=C(O)C*; Orn = NCCC[C@H](N)C(=O)O; Pra = C#CC[C@H](N)C(=O)O; Dab = NCC[C@H](N)C(=O)O; Nva = CCC[C@H](N)C(=O)O; Dap = NC[C@H](N)C(=O)O; Sar = CNCC(=O)O

This experiment addresses T1, human PD-1 / PD-L1-Ig binding on Jurkat cell line over-expressing human PD-1 (Jurkat-PD-1) (Homo sapiens, UniProt Q15116).
T1 construct: expressed in transfected cells; host or cells: Jurkat
As to the kind of experiment: Jurkat-PD-1 Cell Binding High-Content Screening Assay (CBA). It counts as cell-based. An outline of the steps:
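Jurkat cells over-expressing human PD-1, in DMEM/10% FCS, pre-incubated with compound 2 h at 37° C. PE-labeled human PD-L1-Ig (20 nM final) added for 1 h; cells fixed in paraformaldehyde with Hoechst 33342 nuclear stain, washed, and bound fluorescence quantified by high-content imaging.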

The mark [1] stands for this setting: Jurkat-PD-1 cells, PE-labeled PD-L1-Ig 20 nM final; read-out: Jurkat HPD1_PDL1 IC50.

T1 sequence (Q15116 25-288): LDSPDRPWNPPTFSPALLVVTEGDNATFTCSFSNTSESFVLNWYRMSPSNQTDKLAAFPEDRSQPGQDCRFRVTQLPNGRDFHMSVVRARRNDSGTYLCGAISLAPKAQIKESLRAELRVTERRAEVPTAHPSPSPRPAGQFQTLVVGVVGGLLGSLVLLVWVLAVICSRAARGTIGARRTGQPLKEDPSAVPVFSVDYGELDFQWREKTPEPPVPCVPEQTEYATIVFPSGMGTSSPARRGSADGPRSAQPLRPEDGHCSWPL

Take `Cc1cccc(C[C@@H]2NC(=O)[C@H](CC(=O)O)NC(=O)[C@H](Cc3ccc(C(=O)O)cc3)NC(=O)[C@H](Cc3ccc(OCC(=O)O)cc3)NC(=O)CSC[C@@H](C(=O)N[C@@H](C)C(N)=O)NC(=O)[C@H]([C@@H](C)O)NC(=O)[C@H](C(C)C)NC(=O)[C@H](CC3CCCCC3)NC(=O)[C@H](CCN)NC(=O)[C@@H](Cc3ccccc3)NC(=O)[C@H](CCCN)NC(=O)[C@H](CCC(=O)O)NC(=O)[C@H](Cc3ccc(-c4ccccc4)cc3)NC(=O)[C@H](C(C)C)NC2=O)c1` [Compound 1437] ({CH2CO}-Y(Carboxymethyl)[Phe(4-COOH)]D[Phe(3-Me)]V[Bip]E[Orn][dF][Dab][Cha]VTCA-NH2; thioether N-14): under setting [1], the IC50 stood at 16.6 nM.

Consider `C#CC[C@H](NC(=O)[C@@H]1CSCC(=O)N[C@@H](CCC)C(=O)N[C@@H](Cc2ccc(OCC(=O)O)cc2)C(=O)N[C@@H](CC(=O)O)C(=O)N[C@@H](Cc2cccc(C)c2)C(=O)N[C@@H](Cc2ccc(OCC(=O)O)cc2)C(=O)N[C@@H](Cc2ccc(-c3ccccc3)cc2)C(=O)N[C@@H](Cc2ccc(OCC(=O)O)cc2)C(=O)N[C@@H](CCCNC[C@@H](O)[C@H](O)[C@H](O)[C@@H](O)[C@H](O)CO)C(=O)N[C@H](CC(C)C)C(=O)N[C@@H](CCNC[C@@H](O)[C@H](O)[C@H](O)[C@@H](O)[C@H](O)CO)C(=O)N[C@@H](CC2CCCCC2)C(=O)N[C@@H](C(C)C)C(=O)N[C@@H](CCC(=O)O)C(=O)N1)C(=O)O` [Compound 2700] ({CH2CO}-[Nva]Y(Carboxymethyl)D[Phe(3-Me)]Y(Carboxymethyl)[Bip]Y(Carboxymethyl)[X3][dL][X4][Cha]VEC[Pra]-OH; thioether N-14), for which the IC50 under setting [1] is 62.3 nM.

Regarding `CCC(C)[C@@H]1NC(=O)[C@H](CC2CCCCC2)NC(=O)[C@H](CCN)NC(=O)[C@@H](CC(C)C)NC(=O)[C@H](CCCN)NC(=O)[C@H](C(C)CC)NC(=O)[C@H](Cc2ccc(-c3ccccc3)cc2)NC(=O)[C@H](C(C)CC)NC(=O)[C@H](Cc2c[nH]c3ccccc23)NC(=O)[C@H](CC(=O)O)NC(=O)[C@H](Cc2ccc(OCC(=O)O)cc2)NC(=O)[C@H](C(C)O)NC(=O)CSC[C@@H](C(=O)N(C)CC(N)=O)NC(=O)[C@H](CO)NC1=O` (stereo partly drawn) [Compound 2584] ({CH2CO}-[Thr(3ξ)]Y(Carboxymethyl)DW[Ile(3ξ)][Bip][Ile(3ξ)][Orn][dL][Dab][Cha][Ile(3ξ)]SC[Sar]-NH2; thioether N-14), the IC50 (read-out: Jurkat HPD1_PDL1 IC50; Jurkat-PD-1 cells, PE-labeled PD-L1-Ig 20 nM final) was 97 nM.

With `CC[C@H](C)[C@@H]1NC(=O)[C@H](Cc2ccc(-c3ccccc3)cc2)NC(=O)[C@H](C(C)C)NC(=O)[C@H](Cc2cccc(C)c2)NC(=O)[C@H](CC(=O)O)NC(=O)[C@H](Cc2ccc(OCC(=O)O)cc2)NC(=O)[C@H](CN)NC(=O)CSC[C@@H](C(=O)N[C@@H](C)C(N)=O)NC(=O)[C@H]([C@@H](C)O)NC(=O)[C@H](C(C)C)NC(=O)[C@H](CC2CCCCC2)NC(=O)[C@H](CCN)NC(=O)[C@@H](CC(C)C)NC(=O)[C@H](CCCN)NC1=O` [Compound 1210], under setting [1], the half-maximal inhibitory concentration (IC50) amounted to 11.5 nM.

In the case of `CC(C)C[C@H]1NC(=O)[C@H](CCCN)NC(=O)[C@H](CCC(=O)O)NC(=O)[C@H](Cc2ccc(-c3ccccc3)cc2)NC(=O)[C@H](C(C)C)NC(=O)[C@H](Cc2c[nH]c3ccccc23)NC(=O)[C@H](CC(=O)O)NC(=O)[C@H](Cc2ccc(C#N)cc2)NC(=O)[C@H](Cc2ccncc2)NC(=O)CSC[C@@H](C(=O)N[C@@H](C)C(N)=O)NC(=O)[C@H]([C@@H](C)O)NC(=O)[C@H](C(C)C)NC(=O)[C@H](CC2CCCCC2)NC(=O)[C@H](CCN)NC1=O` [Compound 2189], under setting [1], the IC50 was 32.2 nM.

`COc1ccc(C[C@@H]2NC(=O)CSC[C@@H](C(=O)N[C@@H](CCN)C(N)=O)NC(=O)[C@H](CCC(=O)O)NC(=O)[C@H](C(C)(C)O)NC(=O)[C@H](CC3CCCCC3)NC(=O)[C@H](CCN)NC(=O)[C@@H](CC(C)C)NC(=O)[C@H](CCCN)NC(=O)[C@H](Cc3ccc(OCC(=O)O)cc3)NC(=O)[C@H](Cc3ccc(-c4ccccc4)cc3)NC(=O)[C@H](Cc3ccc(OCC(=O)O)cc3)NC(=O)[C@H](Cc3cccc(C)c3)NC(=O)[C@H](CC(=O)O)NC(=O)[C@H](Cc3ccc(OCC(=O)O)cc3)NC2=O)cc1` [Compound 2692] ({CH2CO}-Y(Me)Y(Carboxymethyl)D[Phe(3-Me)]Y(Carboxymethyl)[Bip]Y(Carboxymethyl)[Orn][dL][Dab][Cha][Val(3-OH)]EC[Dab]-NH2; thioether N-14): the IC50 under setting [1] was determined as 4.7 nM.

Take `Cc1cccc(C[C@@H]2NC(=O)[C@H](CC(=O)O)NC(=O)[C@H](Cc3ccc(OCC(=O)O)cc3)NC(=O)[C@H](Cc3ccc(OCC(=O)O)cc3)NC(=O)CSC[C@@H](C(=O)NCC(N)=O)NC(=O)[C@H](CO)NC(=O)[C@H](C(C)C)NC(=O)[C@H](CC(C)C)NC(=O)[C@H](CCN)NC(=O)[C@@H](CC(C)C)NC(=O)[C@H](CCCN)NC(=O)[C@H](C(C)C)NC(=O)[C@H](Cc3ccc(-c4ccccc4)cc3)NC(=O)[C@H](CC(C)C)NC2=O)c1` [Compound 1262] ({CH2CO}-Y(Carboxymethyl)Y(Carboxymethyl)D[Phe(3-Me)]L[Bip]V[Orn][dL][Dab]LVSCG-NH2; thioether N-14): the IC50 under setting [1] is 4.6 nM.

As to `CC(C)C[C@H]1NC(=O)[C@H](CCCN)NC(=O)[C@H](CCCNC(N)=O)NC(=O)[C@H](Cc2ccc(-c3ccccc3)cc2)NC(=O)[C@H](C(C)C)NC(=O)[C@H](Cc2c[nH]c3ccccc23)NC(=O)[C@H](CC(=O)O)NC(=O)[C@H](Cc2ccc(OCC(=O)O)cc2)NC(=O)[C@H](CN)NC(=O)CSC[C@@H](C(=O)N[C@@H](C)C(N)=O)NC(=O)[C@H]([C@@H](C)O)NC(=O)[C@H](C(C)C)NC(=O)[C@H](Cc2ccccc2)NC(=O)[C@H](CCN)NC1=O` [Compound 1344] ({CH2CO}-[Dap]Y(Carboxymethyl)DWV[Bip][Cit][Orn][dL][Dab]FVTCA-NH2; thioether N-14), the IC50 under setting [1] was determined as 31 nM.

As for `CC(C)C[C@H]1NC(=O)[C@H](CCCN)NC(=O)[C@H](CCC(=O)O)NC(=O)[C@H](Cc2ccc(-c3ccccc3)cc2)NC(=O)[C@H](C(C)C)NC(=O)[C@H](Cc2cccs2)NC(=O)[C@H](CC(=O)O)NC(=O)[C@H](Cc2ccncc2)NC(=O)[C@H](CC(N)=O)NC(=O)CSC[C@@H](C(=O)N[C@@H](C)C(N)=O)NC(=O)[C@H]([C@@H](C)O)NC(=O)[C@H](C(C)C)NC(=O)[C@H](CC2CCCCC2)NC(=O)[C@H](CCN)NC1=O` [Compound 2199] ({CH2CO}-N[4Pal]D[2Thi]V[Bip]E[Orn][dL][Dab][Cha]VTCA-NH2; thioether N-14), the IC50 under setting [1] is 10.6 nM.

Regarding `CC(C)C[C@H]1NC(=O)[C@H](CCCN)NC(=O)[C@H](CCC(=O)O)NC(=O)[C@H](Cc2ccc(-c3ccccc3)cc2)NC(=O)[C@H](C(C)C)NC(=O)[C@H](Cc2cccc(Cl)c2)NC(=O)[C@H](CC(=O)O)NC(=O)[C@H](Cc2ccc(OCC(=O)O)cc2)NC(=O)[C@H](Cc2ccncc2)NC(=O)CSC[C@@H](C(=O)N[C@@H](C)C(N)=O)NC(=O)[C@H]([C@@H](C)O)NC(=O)[C@H](C(C)C)NC(=O)[C@H](CC2CCCCC2)NC(=O)[C@H](CCN)NC1=O` [Compound 1491], under setting [1], the IC50 is 22.6 nM.
